Source: patent publication US20110318271A1, “Arginase Inhibitors for the Treatment of Depression” (UNIVERSITY OF TARTU, priority 2008, published 2011)

Test system: Male C57BL/6/Bkl mice
Assay: Forced swimming test in mice
Format: in vivo
Procedure: Male C57BL/6/Bkl mice (Scanbur BK AB, Sweden) weighing 20-25 g were used. Mice were kept 10 per cage (21×37×15 cm) in an animal house at 20° C. in a 12 h light/dark cycle (light on at 7.00 a.m.). Tap water and food pellets were available ad libitum. The animals were kept for at least two weeks in the animal colony before entering experiments. The measurement of locomotor activity, and forced swimming test were carried out consecutively 45 and 55 min after treatment with study compounds, according to Volke V, Wegener G, Bourin […]. […] Behavioural Brain Research 2003; 140: 141-147. In a separate experiment arginase product L-ornithine or saline was injected 15 min prior to L-norvaline. The Forced Swimming test was performed as described by Porsolt et al Porsolt R D, Bertin A, Jalfre M. Behavioral despair in mice: a primary screening test for antidepressants. Arch Int Pharmacodyn Ther 1977; 229: 327-336. A glass cylinder with a diameter of 12 cm was filled with 8 cm water at 25° C. An animal was put into the water and its behaviour was videotaped during 6 min. An observer blind to treatment protocol counted the immobility time during the last 4 min of the 6 min test.

[1] = Example 2, separate experiment (FIG. 2), 500 mg/kg each, L-ornithine or saline injected 15 min prior to L-norvaline, saline 199 sec

Row | Compound | immobility time (20 mg/kg i.p., 55 min after treatment, last 4 min of 6 min test, control 220 sec (FIG. 1)) [s] | immobility time (100 mg/kg i.p., 55 min after treatment, last 4 min of 6 min test, control 220 sec (FIG. 1)) [s] | immobility time (500 mg/kg i.p., 55 min after treatment, last 4 min of 6 min test, control 220 sec (FIG. 1)) [s] | immobility time [1] [s] | immobility time (400 mg/kg i.p., separate experiment, control 219 sec) [s] | effect on immobility time (lower doses 10-100 mg/kg i.p.)
1 | CCC[C@H](N)C(=O)O [L-norvaline] | 146 | 107 | 96 | 127 |  | 
2 | NCCC[C@H](N)C(=O)O [L-ornithine] |  |  |  | 214 |  | 
3 | difluoromethylornithine [DFMO] |  |  |  |  | 191 | ineffective
